Laboratory results reported in US20090105124A1, “HETEROCYCLIC MODULATORS OF TGR5” (Kalypsys, Inc., priority 2007, published 2009).
pEC50: −log10 of the molar value.

Biological target: T1, human TGR5 (Homo sapiens, UniProt Q8TDU6)
T1 construct: expressed in transfected cells
T1 sequence (Q8TDU6 1-330): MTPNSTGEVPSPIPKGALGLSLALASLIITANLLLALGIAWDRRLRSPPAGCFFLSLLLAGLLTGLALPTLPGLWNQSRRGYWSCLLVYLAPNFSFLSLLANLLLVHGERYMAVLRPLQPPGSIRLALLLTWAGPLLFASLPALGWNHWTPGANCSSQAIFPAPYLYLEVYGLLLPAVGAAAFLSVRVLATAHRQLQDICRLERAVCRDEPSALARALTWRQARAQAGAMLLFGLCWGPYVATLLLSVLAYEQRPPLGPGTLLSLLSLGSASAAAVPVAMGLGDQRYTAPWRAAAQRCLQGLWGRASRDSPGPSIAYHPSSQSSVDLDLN
Assay: cAMP production assay in HEK293 cells stably expressing TGR5 (LANCE cAMP, TR-FRET)
Format: cell-based
Conditions: stimulated with test compounds for 30 minutes, 1 mM IBMX, read-out: cAMP Production in 293-TGR5 Cells
Experimental: HEK293 cells stably expressing TGR5 (HEK293-TGR5) were established by stably transfecting HEK-293 cells with an expression vector (pcDNA 3.1, Invetrogen) inserted with human TGR5 cDNA using Fugene6 (Roche, Indianapolis, Ind.) according to conventional methods. Cells were grown in DMEM (invitrogen, Carlsbad, Calif.) supplemented with 10% FBS, 1% penicillin/streptomycin under geneticin selection. The presence of TGR5 transcripts in these cells was confirmed using branched DNA (bDNA, Genospectra, Inc., Fremont Calif.) following the manufacturer's protocol and using specific probes for human TGR5. cAMP production assay was performed in high throughput 1536 well format using LANCE cAMP detection kit (Perkin Elmer Inc., Boston, Mass.) according to the manufacturer's protocol. Briefly, HEK293-TGR5 cells were harvested using non-enzymatic cell dissociation buffer (Invitrogen, Carlsbad, Calif.) and suspended in DMEM supplemented with 0.1% FBS at a density of 800,000 cells/ml. Alexa antibody was added to the cell suspension, and 4 ul of the mixture was dispensed in white opaque tissue culture treated Greiner 1536 well plates (USA Scientific, Inc., Ocala, Fla.). After an overnight incubation at 37 C in an atmosphere of 10% CO2 and 95% humidity, 1 ul of 5 mM IBMX (Sigma, St. Louis, Mo.) solution in DMEM was dispensed for a final concentration of 1 mM. Cells were then stimulated with test compounds for 30 minutes, after which time 5 ul of detection reagent was added and incubated for 1-7 hrs at room temperature. TR-FRET signal was detected using the Viewlux (Perkin Elmer Inc., Boston Mass.). EC50 values were determined using Graph Pad Prizm analysis (GraphPad Software, Inc). The EC50 values for a wide range of bile acids generated from this assay were in agreement with the values published in the scientific literature. […] The symbol (+) denotes an EC50 value of ≦10 μM while the symbol (−) denotes an EC50 value of >10 μM (see Table 1).

Row | Compound | pEC50
1 | Cn1ncc2nc(-c3ccc(F)cc3)n(NCc3ccc(F)c(F)c3)c(=O)c21 [Example 42, 6-{[(3,4-Difluorophenyl)methyl]amino}-5-(4-fluorophenyl)-1-methyl-1H,6H,7H-pyrazolo[4,3-d]pyrimidin-7-one] | < 5.00
2 | N#Cc1ccc(CNn2c(-c3ccc(F)cc3)nc3nccnc3c2=O)cc1 [Example 44, 4-({[2-(4-Fluorophenyl)-4-oxo-3,4-dihydropteridin-3-yl]amino}methyl)benzonitrile] | ≥ 5.00
3 | O=c1c2nccnc2nc(-c2ccc(F)cc2)n1NCc1ccc(Cl)c(F)c1 [Example 45, 3-{[(4-Chloro-3-fluorophenyl)methyl]amino}-2-(4-fluorophenyl)-3,4-dihydropteridin-4-one] | ≥ 5.00
4 | O=c1c2nccnc2nc(-c2ccc(F)cc2)n1NCc1ccc(Cl)cc1F [Example 46, 3-{[(4-Chloro-2-fluorophenyl)methyl]amino}-2-(4-fluorophenyl)-3,4-dihydropteridin-4-one] | ≥ 5.00
5 | Cc1cncc(-c2nc3nccnc3c(=O)n2NCc2ccc(Cl)cc2)c1 [Example 47, 3-{[(4-Chlorophenyl)methyl]amino}-2-(5-methylpyridin-3-yl)-3,4-dihydropteridin-4-one] | ≥ 5.00
6 | Cc1cncc(-c2nc3nccnc3c(=O)n2NCc2ccc(C#N)cc2)c1 [Example 48, 4-({[2-(5-Methylpyridin-3-yl)-4-oxo-3,4-dihydropteridin-3-yl]amino}methyl)benzonitrile] | ≥ 5.00
7 | O=c1c2nccnc2nc(-c2cncc(Cl)c2)n1NCc1ccc(Cl)cc1 [Example 49, 3-{[(4-Chlorophenyl)methyl]amino}-2-(5-chloropyridin-3-yl)-3,4-dihydropteridin-4-one] | ≥ 5.00
8 | O=c1c2nccnc2nc(-c2ccc(F)cc2)n1/N=C/c1ccc(Br)cc1 [Example 50, 3-[(E)-[(4-Bromophenyl)methylidene]amino]-2-(4-fluorophenyl)-3,4-dihydropteridin-4-one] | < 5.00
9 | O=c1c2c(nc(-c3ccc(F)cc3)n1NCc1ccc(Br)cc1)CNCC2 [Example 51, 3-{[(4-Bromophenyl)methyl]amino}-2-(4-fluorophenyl)-3H,4H,5H,6H,7H,8H-pyrido[3,4-d]pyrimidin-4-one] | < 5.00

The remaining lines, values ahead:

Row | pEC50 | Compound
10 | ≥ 5.00 | O=c1c2sccc2nc(-c2ccc(F)cc2)n1NCc1ccc(Br)cc1 [Example 35, 3-{[(4-Bromophenyl)methyl]amino}-2-(4-fluorophenyl)-3H,4H-thieno[3,2-d]pyrimidin-4-one]
11 | ≥ 5.00 | O=c1c2sccc2nc(-c2ccc(F)cc2)n1NCc1ccc(Cl)c(Cl)c1 [Example 36, 3-{[(3,4-Dichlorophenyl)methyl]amino}-2-(4-fluorophenyl)-3H,4H-thieno[3,2-d]pyrimidin-4-one]
12 | ≥ 5.00 | O=c1c2sccc2nc(-c2ccc(F)cc2)n1NCc1ccc(Cl)cc1 [Example 37, 3-{[(4-Chlorophenyl)methyl]amino}-2-(4-fluorophenyl)-3H,4H-thieno[3,2-d]pyrimidin-4-one]
13 | ≥ 5.00 | Cn1cnc2nc(-c3ccc(F)cc3)n(NCc3ccc(Br)cc3)c(=O)c21 [Example 38, 1-{[(4-Bromophenyl)methyl]amino}-2-(4-fluorophenyl)-7-methyl-6,7-dihydro-1H-purin-6-one]
14 | ≥ 5.00 | Cn1cnc2nc(-c3ccc(F)cc3)n(NCc3ccc(Cl)cc3)c(=O)c21 [Example 39, 1-{[(4-Chlorophenyl)methyl]amino}-2-(4-fluorophenyl)-7-methyl-6,7-dihydro-1H-purin-6-one]
15 | ≥ 5.00 | Cn1ncc2nc(-c3ccc(F)cc3)n(NCc3ccc(Br)cc3)c(=O)c21 [Example 40, 6-{[(4-Bromophenyl)methyl]amino}-5-(4-fluorophenyl)-1-methyl-1H,6H,7H-pyrazolo[4,3-d]pyrimidin-7-one]
16 | ≥ 5.00 | Cn1ncc2nc(-c3ccc(F)cc3)n(NCc3ccc(Cl)cc3)c(=O)c21 [Example 41, 6-{[(4-Chlorophenyl)methyl]amino}-5-(4-fluorophenyl)-1-methyl-1H,6H,7H-pyrazolo[4,3-d]pyrimidin-7-one]
17 | ≥ 5.00 | O=c1c2nccnc2nc(-c2ccc(F)cc2)n1NCc1ccc(Cl)cc1 [Example 43, 3-{[(4-Chlorophenyl)methyl]amino}-2-(4-fluorophenyl)-3,4-dihydropteridin-4-one]
